Assay results reported in PubChem BioAssay AID2060619 (Molecular Pharmacology Branch, DTP, NCI, 2025).

System: 323965-272-R-J2-PDC complex spheroid viability
Assay: Anticancer human tumor 323965-272-R-J2-PDC patient-derived pancreatic carcinoma cell line growth inhibition [CLK]
Details: for IC50: curve of first compound; for viability, T/C: stronger effect = lower value
Summary of the method: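 Patient-derived tumor cells grown as complex spheroids with HUVEC endothelial cells and mesenchymal stem cells, treated with drug combinations. Concentrations descend in half-log steps from near clinical Cmax, or from 10 microM if Cmax unknown.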

[1] = second compound 0.0316 µM, first compound 0.0316 µM
[2] = second compound 0.0316 µM, first compound 0.1 µM
[3] = second compound 0.0316 µM, first compound 0.316 µM
[4] = second compound 0.0316 µM, first compound 1 µM
[5] = second compound 0.0316 µM, first compound 3.16 µM
[6] = second compound 0.0316 µM, first compound 10 µM
[7] = second compound 0.1 µM, first compound 0.0316 µM
[8] = second compound 0.1 µM, first compound 0.1 µM
[9] = second compound 0.1 µM, first compound 0.316 µM
[10] = second compound 0.1 µM, first compound 1 µM
[11] = second compound 0.1 µM, first compound 3.16 µM
[12] = second compound 0.1 µM, first compound 10 µM
[13] = second compound 0.316 µM, first compound 0.0316 µM
[14] = second compound 0.316 µM, first compound 0.1 µM
[15] = second compound 0.316 µM, first compound 0.316 µM
[16] = second compound 0.316 µM, first compound 1 µM
[17] = second compound 0.316 µM, first compound 3.16 µM
[18] = second compound 0.316 µM, first compound 10 µM
[19] = second compound 1 µM, first compound 0.0316 µM
[20] = second compound 1 µM, first compound 0.1 µM
[21] = second compound 1 µM, first compound 0.316 µM
[22] = second compound 1 µM, first compound 1 µM
[23] = second compound 1 µM, first compound 3.16 µM
[24] = second compound 1 µM, first compound 10 µM
[25] = second compound 3.16 µM, first compound 0.0316 µM
[26] = second compound 3.16 µM, first compound 0.1 µM
[27] = second compound 3.16 µM, first compound 0.316 µM
[28] = second compound 3.16 µM, first compound 1 µM
[29] = second compound 3.16 µM, first compound 3.16 µM
[30] = second compound 3.16 µM, first compound 10 µM
[31] = second compound 10 µM, first compound 0.0316 µM
[32] = second compound 10 µM, first compound 0.1 µM
[33] = second compound 10 µM, first compound 0.316 µM
[34] = second compound 10 µM, first compound 1 µM
[35] = second compound 10 µM, first compound 3.16 µM
[36] = second compound 10 µM, first compound 10 µM
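Note: spheroids exposed to agents for seven days before readout.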
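Throughout, for viability, T/C: percent of DMSO vehicle control wells so 100% = untreated growth.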

CC(=O)O[C@H]1C(=O)[C@@]2(C)[C@H]([C@H](OC(=O)c3ccccc3)[C@]3(O)C[C@H](OC(=O)[C@H](O)[C@@H](NC(=O)c4ccccc4)c4ccccc4)C(C)=C1C3(C)C)[C@]1(OC(C)=O)CO[C@@H]1C[C@@H]2O + CN1CCN(c2cc(C(=O)Nc3cc4cc(-c5cnn(C)c5)ccc4cn3)ccn2)CC1 was tested, and the IC50 (second compound 0.0316 µM) was under 31.6 nM, the IC50 (second compound 0.1 µM) was under 31.6 nM and the IC50 (second compound 0.316 µM) was under 31.6 nM. For the same compound, the IC50 (second compound 1 µM) was under 31.6 nM, the IC50 (second compound 3.16 µM) was under 31.6 nM and the IC50 (second compound 10 µM) was under 31.6 nM. It also gave a viability, T/C [1] of 33.2%, a viability, T/C [2] of 34.3% and a viability, T/C [3] of 31.7%. For the same compound, the viability, T/C [4] was 33%, the viability, T/C [5] was 34.8% and the viability, T/C [6] was 30.4%. For the same compound, the viability, T/C [7] was 28.3%, the viability, T/C [8] was 28.1% and the viability, T/C [9] was 24.7%. The viability, T/C [10] was 25.9%, the viability, T/C [11] was 26.7% and the viability, T/C [12] was 28.5%. For the same compound, the viability, T/C [13] was 19.8%, the viability, T/C [14] was 19.3% and the viability, T/C [15] was 19%. For the same compound, the viability, T/C [16] was 19.5%, the viability, T/C [17] was 17.2% and the viability, T/C [18] was 16.9%. It also gave a viability, T/C [19] of 3.79%, a viability, T/C [20] of 3.19% and a viability, T/C [21] of 3.35%. It also gave a viability, T/C [22] of 2.94%, a viability, T/C [23] of 3.34% and a viability, T/C [24] of 3.64%. For the same compound, the viability, T/C [25] was 3.67%, the viability, T/C [26] was 6.44% and the viability, T/C [27] was 4.39%. It also gave a viability, T/C [28] of 4.7%, a viability, T/C [29] of 3.88% and a viability, T/C [30] of 5.16%. For the same compound, the viability, T/C [31] was 4.53%, the viability, T/C [32] was 4.6% and the viability, T/C [33] was 4.22%. The viability, T/C [34] was 3.5%, the viability, T/C [35] was 3.95% and the viability, T/C [36] was 3.79%.

Compound COc1ccc([C@@H](O)c2cc(-c3ncnc4cc(N5CCOCC5)ccc34)c(F)cc2Cl)nn1 + CN1CCN(c2cc(C(=O)Nc3cc4cc(-c5cnn(C)c5)ccc4cn3)ccn2)CC1 has an IC50 (second compound 0.0316 µM) of 7780 nM, an IC50 (second compound 0.1 µM) of 3340 nM and an IC50 (second compound 0.316 µM) of under 31.6 nM. It also gave an IC50 (second compound 1 µM) of under 31.6 nM, an IC50 (second compound 3.16 µM) of under 31.6 nM and an IC50 (second compound 10 µM) of under 31.6 nM. The viability, T/C [1] was 94.2%, the viability, T/C [2] was 100% and the viability, T/C [3] was 84%. It also gave a viability, T/C [4] of 89.7%, a viability, T/C [5] of 68.8% and a viability, T/C [6] of 44.5%. It also gave a viability, T/C [7] of 70.5%, a viability, T/C [8] of 80.3% and a viability, T/C [9] of 62.9%. It also gave a viability, T/C [10] of 61.8%, a viability, T/C [11] of 51% and a viability, T/C [12] of 37.8%. It also gave a viability, T/C [13] of 21.9%, a viability, T/C [14] of 23.9% and a viability, T/C [15] of 22.8%. The viability, T/C [16] was 21.1%, the viability, T/C [17] was 19.1% and the viability, T/C [18] was 21.1%. For the same compound, the viability, T/C [19] was 4.14%, the viability, T/C [20] was 3.13% and the viability, T/C [21] was 4.35%. For the same compound, the viability, T/C [22] was 2.76%, the viability, T/C [23] was 3.07% and the viability, T/C [24] was 4.48%. For the same compound, the viability, T/C [25] was 4.01%, the viability, T/C [26] was 4.31% and the viability, T/C [27] was 6.05%. For the same compound, the viability, T/C [28] was 4.02%, the viability, T/C [29] was 5.21% and the viability, T/C [30] was 4.73%. For the same compound, the viability, T/C [31] was 4.33%, the viability, T/C [32] was 5.55% and the viability, T/C [33] was 4.42%. It also gave a viability, T/C [34] of 5.56%, a viability, T/C [35] of 5.95% and a viability, T/C [36] of 6.95%.
